In ChEMBL document CHEMBL1201862, “PubChem BioAssay data set” (2004):
Where a name gives a salt, the structure may show the parent alone. Activity calls are given as the source filed them.

Key:
[1] = reduction of Shn3 3'UTR-driven luciferase in osteoblasts – cell-based, Clone20 osteoblasts, firefly luciferase, cherry-picked, dose response (AID 624132); assay type: functional;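 further: firefly luciferase luminescence from reporter carrying the Shn3 3'UTR in osteoblasts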
[2] = loss of viability in HepG2 cells – cell-based, CellTiter-Glo, cherry-picked, cytotoxicity control for Shn3 inhibitor project, dose response (AID 624134); assay type: functional
[3] = non-specific 3'UTR reporter inhibition in Clone20-Shn3RL – cell-based, Renilla luciferase, cherry-picked, counter-screen for Shn3 inhibitor project, dose response (AID 624133); assay type: functional
[4] = target: T1, Protein skinhead-1 (Caenorhabditis elegans, UniProt P34707); assay type: functional
T1 sequence (P34707 whole entry): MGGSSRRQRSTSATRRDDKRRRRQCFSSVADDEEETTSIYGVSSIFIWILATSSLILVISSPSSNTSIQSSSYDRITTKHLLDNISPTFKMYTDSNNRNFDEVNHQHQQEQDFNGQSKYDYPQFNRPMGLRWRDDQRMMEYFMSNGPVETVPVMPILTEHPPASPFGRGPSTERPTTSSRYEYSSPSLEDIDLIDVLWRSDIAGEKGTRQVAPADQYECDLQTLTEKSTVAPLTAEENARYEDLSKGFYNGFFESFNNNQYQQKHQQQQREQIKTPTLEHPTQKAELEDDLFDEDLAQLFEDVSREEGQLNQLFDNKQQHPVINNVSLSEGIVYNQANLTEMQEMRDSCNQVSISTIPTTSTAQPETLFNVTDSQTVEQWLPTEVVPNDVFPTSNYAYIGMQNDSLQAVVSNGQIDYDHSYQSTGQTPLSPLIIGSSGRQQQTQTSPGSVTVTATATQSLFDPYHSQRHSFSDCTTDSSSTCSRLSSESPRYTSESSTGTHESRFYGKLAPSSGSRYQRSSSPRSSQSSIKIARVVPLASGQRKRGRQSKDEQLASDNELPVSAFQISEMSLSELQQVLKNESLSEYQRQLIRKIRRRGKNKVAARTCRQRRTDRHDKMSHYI

[5] = target: Cytochrome P450 2C9 (Homo sapiens, UniProt P11712)
[6] = target: Large T antigen (Simian virus 40, UniProt P03070); assay type: functional, Betapolyomavirus macacae;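 further: Confirmatory-stage PubChem screen for compounds that inhibit SV40 T antigen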
[7] = Luminescence Cell-Based Dose Retest to Confirm Inhibitors of Cancer Stem Cells. [Related pubchem assays (depositor defined):AID2717, AID2721]; assay type: functional, Homo sapiens; conditions: Homo sapiens
[8] = Trypanosoma cruzi growth suppression in host cells – NIH3T3 host cells, beta-gal luminescence, confirmation (AID 2044); assay type: functional, cell-based;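 further: intracellular parasites grown in NIH/3T3 mouse fibroblasts as host cells; luminescent beta-galactosidase reporter signal from transgenic T. cruzi replicating inside host cells; inhibitors lower the luminescence signal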
[9] = NIH3T3 cell viability loss – ATP luminescence, mouse fibroblasts, counter-screen, dose response (AID 2010); assay type: functional, cell-based; conditions: NIH3T3;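 further: cells exposed to compound for about 90 hours before reading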
[10] = tested on: P388/ADR; assay: cells; assay type: functional; conditions: Mus musculus
[11] = target: T2, Replicative DNA helicase DnaB (Mycobacterium tuberculosis, UniProt P9WMR3); assay: DnaB intein splicing inhibitors, dose response, biochemical, cell-free fluorescence (AID 449749); assay type: functional
T2 sequence (P9WMR3 whole entry): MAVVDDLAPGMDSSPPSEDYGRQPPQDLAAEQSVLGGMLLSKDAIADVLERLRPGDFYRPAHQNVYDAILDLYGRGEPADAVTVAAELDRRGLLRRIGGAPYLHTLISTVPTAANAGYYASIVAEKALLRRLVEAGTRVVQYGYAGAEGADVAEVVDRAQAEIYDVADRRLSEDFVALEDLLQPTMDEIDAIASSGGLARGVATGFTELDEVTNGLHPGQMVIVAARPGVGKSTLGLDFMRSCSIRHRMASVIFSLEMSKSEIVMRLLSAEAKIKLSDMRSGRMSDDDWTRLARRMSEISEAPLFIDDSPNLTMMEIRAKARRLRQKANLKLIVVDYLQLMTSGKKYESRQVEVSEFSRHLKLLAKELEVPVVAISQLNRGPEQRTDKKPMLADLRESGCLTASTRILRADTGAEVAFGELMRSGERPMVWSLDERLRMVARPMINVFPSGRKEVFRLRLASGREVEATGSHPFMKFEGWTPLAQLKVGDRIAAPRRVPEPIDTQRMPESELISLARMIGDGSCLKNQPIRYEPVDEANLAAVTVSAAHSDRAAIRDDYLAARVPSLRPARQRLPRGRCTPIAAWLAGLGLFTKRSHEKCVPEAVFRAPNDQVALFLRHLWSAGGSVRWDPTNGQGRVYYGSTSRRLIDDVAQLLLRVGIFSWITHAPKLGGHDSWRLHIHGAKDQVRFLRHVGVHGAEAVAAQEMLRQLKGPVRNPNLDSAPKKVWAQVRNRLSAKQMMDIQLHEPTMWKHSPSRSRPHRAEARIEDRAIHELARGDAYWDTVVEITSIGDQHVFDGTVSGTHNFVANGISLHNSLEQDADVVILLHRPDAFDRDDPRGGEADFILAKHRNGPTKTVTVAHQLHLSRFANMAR

[12] = target: T3, Protein RecA (Mycobacterium tuberculosis, UniProt P9WHJ3); assay: Fluorescence Cell-Free Homogeneous Dose Retest to Identify Inhibitors of RecA-Intein Splicing Activity. [Related pubchem assays (depositor defined):AID2097, AID2223, AID489010, AID492950]; assay type: functional
T3 sequence (P9WHJ3 whole entry): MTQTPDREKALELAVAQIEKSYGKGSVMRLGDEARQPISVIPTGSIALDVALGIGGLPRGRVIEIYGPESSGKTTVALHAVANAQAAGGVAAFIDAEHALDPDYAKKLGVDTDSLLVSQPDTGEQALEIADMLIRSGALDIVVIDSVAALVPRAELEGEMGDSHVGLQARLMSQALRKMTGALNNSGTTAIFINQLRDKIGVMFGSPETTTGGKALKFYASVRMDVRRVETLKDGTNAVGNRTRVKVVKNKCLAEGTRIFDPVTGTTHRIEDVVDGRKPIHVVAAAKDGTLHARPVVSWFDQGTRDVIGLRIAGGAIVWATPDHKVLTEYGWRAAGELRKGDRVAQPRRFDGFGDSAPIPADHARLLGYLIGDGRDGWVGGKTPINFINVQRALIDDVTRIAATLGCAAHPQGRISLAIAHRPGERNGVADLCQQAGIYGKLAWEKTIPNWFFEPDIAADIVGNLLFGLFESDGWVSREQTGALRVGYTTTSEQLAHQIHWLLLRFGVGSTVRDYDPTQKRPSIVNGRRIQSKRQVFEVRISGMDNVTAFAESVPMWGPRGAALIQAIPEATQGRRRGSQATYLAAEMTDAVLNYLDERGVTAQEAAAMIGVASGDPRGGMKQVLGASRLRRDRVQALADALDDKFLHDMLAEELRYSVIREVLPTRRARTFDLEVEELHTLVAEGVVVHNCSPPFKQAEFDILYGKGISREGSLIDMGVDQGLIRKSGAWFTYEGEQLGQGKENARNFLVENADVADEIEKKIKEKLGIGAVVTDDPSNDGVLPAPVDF

[13] = target: Cytochrome P450 2C19 (Homo sapiens, UniProt P33261); assay: Cytochrome panel assay with activity outcomes. Panel member name: p450-cyp2c19 Compounds with AC50 equal or less than 10 uM are considered active; assay type: functional; conditions: read-out: AC50
[14] = viability of uninfected HEp-2 cells – cell-based, HTS, cytotoxicity control for RSV inhibitor project, dose response (AID 2410); assay type: functional; conditions: human respiratory syncytial virus
[15] = cells; assay type: functional, cell-based
[16] = cells; assay type: functional, cell-based; remark: listed apart in the source
[17] = target: FAD-linked sulfhydryl oxidase ALR (Homo sapiens, UniProt P55789); assay: ALR-catalysed DTT oxidation blockers – biochemical, H2O2 detection, luminescence, cherry-pick, dose response (AID 493248)
[18] = target: T4, Cytochrome P450 1A2 (Homo sapiens, UniProt P05177);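 further: PubChem cytochrome P450 panel assay, CYP1A2 panel member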
T4 sequence (P05177 whole entry): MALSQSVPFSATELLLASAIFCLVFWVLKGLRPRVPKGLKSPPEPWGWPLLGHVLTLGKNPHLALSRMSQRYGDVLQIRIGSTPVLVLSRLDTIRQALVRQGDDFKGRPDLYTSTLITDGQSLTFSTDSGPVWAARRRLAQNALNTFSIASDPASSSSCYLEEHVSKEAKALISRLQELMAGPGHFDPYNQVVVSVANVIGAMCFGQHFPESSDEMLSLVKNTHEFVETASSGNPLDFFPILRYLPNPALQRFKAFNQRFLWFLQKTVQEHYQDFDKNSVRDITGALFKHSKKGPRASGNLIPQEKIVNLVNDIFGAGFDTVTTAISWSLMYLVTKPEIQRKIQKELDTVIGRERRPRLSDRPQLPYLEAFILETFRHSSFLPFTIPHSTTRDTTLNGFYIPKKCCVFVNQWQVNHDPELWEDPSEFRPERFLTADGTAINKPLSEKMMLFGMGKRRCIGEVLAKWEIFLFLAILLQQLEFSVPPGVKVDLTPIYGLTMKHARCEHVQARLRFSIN

Sequence of Cytochrome P450 2C9 (P11712 whole entry): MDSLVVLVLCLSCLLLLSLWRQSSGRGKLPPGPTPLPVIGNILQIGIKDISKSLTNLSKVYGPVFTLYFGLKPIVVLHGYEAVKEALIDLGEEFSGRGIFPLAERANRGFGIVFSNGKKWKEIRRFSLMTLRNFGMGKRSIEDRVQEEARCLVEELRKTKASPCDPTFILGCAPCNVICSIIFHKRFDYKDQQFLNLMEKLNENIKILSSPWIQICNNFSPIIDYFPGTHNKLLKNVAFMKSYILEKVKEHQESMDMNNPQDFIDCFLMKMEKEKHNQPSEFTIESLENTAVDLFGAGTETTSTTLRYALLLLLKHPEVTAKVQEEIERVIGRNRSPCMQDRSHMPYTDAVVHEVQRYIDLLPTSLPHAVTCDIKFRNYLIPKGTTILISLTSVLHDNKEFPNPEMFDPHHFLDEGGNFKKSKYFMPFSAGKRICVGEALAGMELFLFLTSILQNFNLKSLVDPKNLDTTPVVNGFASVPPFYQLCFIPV
Sequence of Large T antigen (P03070 whole entry): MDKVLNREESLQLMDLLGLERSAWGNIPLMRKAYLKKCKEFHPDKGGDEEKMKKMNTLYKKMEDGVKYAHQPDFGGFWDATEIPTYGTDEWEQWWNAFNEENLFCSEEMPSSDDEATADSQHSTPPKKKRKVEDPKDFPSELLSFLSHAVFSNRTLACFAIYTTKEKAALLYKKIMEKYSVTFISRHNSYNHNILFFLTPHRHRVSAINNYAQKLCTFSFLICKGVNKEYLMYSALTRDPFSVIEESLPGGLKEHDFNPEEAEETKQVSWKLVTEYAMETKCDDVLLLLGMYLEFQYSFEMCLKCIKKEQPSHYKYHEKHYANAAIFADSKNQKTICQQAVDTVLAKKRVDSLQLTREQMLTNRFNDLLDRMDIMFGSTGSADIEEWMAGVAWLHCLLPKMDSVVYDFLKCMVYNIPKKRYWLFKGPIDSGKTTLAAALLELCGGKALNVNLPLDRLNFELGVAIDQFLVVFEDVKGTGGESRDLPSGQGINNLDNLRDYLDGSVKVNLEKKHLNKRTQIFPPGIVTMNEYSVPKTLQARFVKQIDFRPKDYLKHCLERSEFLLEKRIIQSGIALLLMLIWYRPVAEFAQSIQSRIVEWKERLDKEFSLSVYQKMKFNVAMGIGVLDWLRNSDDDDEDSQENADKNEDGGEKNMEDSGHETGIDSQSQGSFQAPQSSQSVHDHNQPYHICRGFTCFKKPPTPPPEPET
Sequence of FAD-linked sulfhydryl oxidase ALR (P55789 whole entry): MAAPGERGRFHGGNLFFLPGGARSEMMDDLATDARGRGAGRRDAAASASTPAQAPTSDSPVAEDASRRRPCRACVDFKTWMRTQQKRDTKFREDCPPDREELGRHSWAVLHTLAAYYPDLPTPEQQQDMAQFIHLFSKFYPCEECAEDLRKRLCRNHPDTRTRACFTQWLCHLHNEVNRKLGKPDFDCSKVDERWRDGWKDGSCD
Sequence of Cytochrome P450 2C19 (P33261 whole entry): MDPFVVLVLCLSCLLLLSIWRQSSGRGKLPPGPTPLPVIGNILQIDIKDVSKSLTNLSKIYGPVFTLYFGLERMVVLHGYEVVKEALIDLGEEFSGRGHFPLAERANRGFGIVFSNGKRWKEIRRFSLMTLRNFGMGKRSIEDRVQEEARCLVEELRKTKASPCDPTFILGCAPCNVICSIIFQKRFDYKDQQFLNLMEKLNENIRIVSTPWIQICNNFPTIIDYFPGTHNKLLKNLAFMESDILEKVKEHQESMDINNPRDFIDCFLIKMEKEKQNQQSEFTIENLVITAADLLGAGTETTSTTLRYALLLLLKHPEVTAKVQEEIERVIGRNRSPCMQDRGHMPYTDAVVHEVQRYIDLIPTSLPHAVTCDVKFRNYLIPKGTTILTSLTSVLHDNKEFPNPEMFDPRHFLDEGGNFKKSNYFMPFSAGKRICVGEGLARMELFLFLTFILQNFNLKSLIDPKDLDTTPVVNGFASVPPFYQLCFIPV

SMILES: CCOc1ccc(CN(C)c2ccc(S(=O)(=O)N3CCN(C)CC3)cc2[N+](=O)[O-])cc1OC
- AC50 [1]: 3.38 µM (active)
- AC50 [2]: 43 µM (active)
- AC50 [3]: 5.91 µM (active)

SMILES: N#Cc1ccc(-c2nc3c4ccccc4ccn3c2Cc2ccccc2C(F)(F)F)cc1
- IC50 [4]: > 100 µM (inactive)

SMILES: COC(=O)c1ccc(Cl)c(NC(=O)c2ccc(-c3ccccc3)cc2)c1
- AC50 [5]: inconclusive

SMILES: O=Cc1coc2c(ccc3ccccc32)c1=O
- IC50 [6]: 9.01 µM (active)

SMILES: COc1ccc([N+](=O)[O-])cc1NC(=O)C(C)OC(=O)CSC(C)C(=O)Nc1cc(C)on1 (centres undefined)
- IC50 [4]: > 100 µM (inactive)

SMILES: CCOC(=O)C(/C=N/c1ncccc1C)=C(/O)OCC
- AC50 [5]: inconclusive

SMILES: CC(=O)c1ccc(N2CCN(c3ccc(S(=O)(=O)NCCCN(C)C)cc3[N+](=O)[O-])CC2)cc1
- AC50 [7]: 1.41 µM (active)
- AC50 [1]: 3.78 µM (active)
- AC50 [2]: 27.3 µM (active)
- AC50 [3]: 36.7 µM (active)

SMILES: O=C(O)[C@H]1CCCC[C@H]1C(=O)Nc1ccc(Nc2ccccc2)cc1
- IC50 [6]: 9.46 µM (active)

SMILES: CCOC(=O)c1c(C)[nH]c(C(=O)COC(=O)c2oc3ccc(OC)cc3c2C)c1C
- IC50 [4]: > 100 µM (inactive)

SMILES: O=C(/N=C1/N=C2C=CC(Br)=CN2Cc2ccccc21)c1ccc([N+](=O)[O-])cc1[N+](=O)[O-]
- EC50 [8]: 1.39 µM (active)
- EC50 [9]: > 60 µM (not active)
- IC50 [4]: 28.3 µM (active)

SMILES: Cc1cc2c(c3oc(C4(C)OC4C4OC4C)cc(=O)c13)C(=O)c1c(O)c(C3CC(C)(N(C)C)C(O)C(C)O3)cc(C3CC(N(C)C)C(O)C(C)O3)c1C2=O (centres undefined)
- GI50 [10]: 0.0025 µM (active)

SMILES: O=c1c2ccccc2nc2n1C(CSCc1ccc(Cl)cc1Cl)CS2 (centres undefined)
- AC50 [1]: 1.45 µM (active)
- AC50 [2]: 46.2 µM (active)
- AC50 [3]: 3.48 µM (active)

SMILES: Nc1cnc(Nc2ccc(Br)cc2)nc1N
- IC50 [6]: 22.3 µM (active)

SMILES: CCOC(=O)Nc1nc(-c2ccc(Cl)cc2Cl)cs1
- IC50 [4]: 21.4 µM (active)

SMILES: CCc1ccc(NC(=O)C(=O)N/N=C(\C)CC(=O)Nc2ccccn2)cc1
- AC50 [11]: > 380 µM (inactive)
- EC50 [12]: > 380 µM (inactive)

SMILES: Cc1cc(C(=O)N/N=C/c2cccc([N+](=O)[O-])c2)c(C)o1
- AC50 [13]: 22.4 µM (inconclusive)
- AC50 [5]: inconclusive

SMILES: COC(=O)C1=C(C)N=c2s/c(=C/c3cccs3)c(=O)n2C1c1ccc(F)cc1 (centres undefined)
- IC50 [4]: > 100 µM (inactive)

SMILES: O=S(=O)(c1cccc2c(S(=O)(=O)N3CCCC3)cccc12)N1CCCC1
- IC50 [4]: > 100 µM (inactive)

SMILES: C=CSc1sc(Cl)c(N2CCOCC2)c1[N+](=O)[O-]
- AC50 [11]: 11.1 µM (active)
- EC50 [12]: 54.6 µM (active)

SMILES: O=C(CSc1cccc2cccnc12)N/N=C/c1ccc(O)cc1
- IC50 [6]: 11.6 µM (active)

SMILES: COc1ccc(/C=N/NC(=O)c2ccoc2C)cc1O
- CC50 [14]: 18.5 µM (active)
- EC50 [15]: > 350 µM (not active)
- IC50 [6]: 9.6 µM (active)
- EC50 [16]: 6.49 µM (active)
- AC50 [17]: 1.2 µM (active)

SMILES: O=C1c2ccccc2NC2(CCCCC2)N1c1ccc(O)cc1
- IC50 [6]: 12.5 µM (active)

SMILES: Cc1noc(C)c1-c1cc(NCc2cccnc2)ncn1
- AC50 [5]: inconclusive

SMILES: COc1ccc2oc(C(F)(F)C(F)F)cc(=O)c2c1
- IC50 [4]: > 100 µM (inactive)

SMILES: O=C1COc2ccccc2CN1
- AC50 [5]: inconclusive

SMILES: COc1cc(/C=C/C(=O)OCC(=O)N2CC(=O)Nc3ccccc32)ccc1O
- IC50 [6]: 12.6 µM (active)

SMILES: FC(F)(F)c1ccccc1-c1ccc2ncnc(NC3CCNCC3)c2c1
- AC50 [18]: 20 µM (inconclusive)
- AC50 [5]: inconclusive

SMILES: ClCCN(CCCl)c1ccc(C=Cc2ccncn2)cc1
- IC50 [4]: > 100 µM (inactive)

SMILES: CC(C)NC(=N)NC(=N)Nc1ccc(Cl)cc1 [PROGUANIL HYDROCHLORIDE]
- AC50 [1]: 0.37 µM (active)
- AC50 [3]: 0.403 µM (active)

SMILES: Cc1onc(-c2ccccc2)c1-c1nc2cc(Cl)ccc2c(=O)o1
- AC50 [11]: 1.53 µM (active)
- EC50 [12]: 158 µM (active)
